Data on 35 compounds can be found in patent US20120065187A1 (ALCON RESEARCH, LTD, priority 2008, published 2012).

The target in one experiment is T1, human H4 (Homo sapiens, UniProt Q9H3N8).
T1 construct: host or cells: CHO-K1
Put plainly: In vitro histamine receptor cell-based assay (aequorin bioluminescence), H4 antagonism. Particulars: CHO-K1 cells expressing human H4, aequorin and Gα16; histamine at EC80; read-out: H4 Antagonist EC50. Put shortly:
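Antagonism read as loss of aequorin luminescence after histamine (EC80 final) addition, following 15 min room-temperature compound pretreatment of coelenterazine-h-loaded (5 μM) CHO-K1 cells co-expressing human H4 and Gα16. Efficacy given relative to 10 μM JNJ7777120; agonism excluded in separate no-histamine runs.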

The next experiment deals with T2, human H1 (Homo sapiens, UniProt P35367).
T2 construct: host or cells: CHO-K1
T2 sequence (P35367 whole entry): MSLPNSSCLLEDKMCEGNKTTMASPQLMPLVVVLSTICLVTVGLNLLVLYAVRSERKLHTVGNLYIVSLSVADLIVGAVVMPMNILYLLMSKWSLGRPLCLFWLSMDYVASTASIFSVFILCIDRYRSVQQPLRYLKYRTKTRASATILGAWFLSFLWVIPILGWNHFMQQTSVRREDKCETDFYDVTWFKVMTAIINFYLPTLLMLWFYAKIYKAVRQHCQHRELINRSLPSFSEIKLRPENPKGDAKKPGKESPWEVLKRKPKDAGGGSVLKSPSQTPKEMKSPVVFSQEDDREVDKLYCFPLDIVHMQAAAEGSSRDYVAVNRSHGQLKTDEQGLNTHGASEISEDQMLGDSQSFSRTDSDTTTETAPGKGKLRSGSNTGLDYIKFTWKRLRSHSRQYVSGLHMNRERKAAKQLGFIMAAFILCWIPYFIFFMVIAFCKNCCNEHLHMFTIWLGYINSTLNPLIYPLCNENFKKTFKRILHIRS
Put plainly: In vitro histamine receptor cell-based assay (aequorin bioluminescence), H1 antagonism. As to conditions: CHO-K1 cells expressing human H1 and aequorin; histamine at EC80; read-out: H1 Antagonist EC50. The method in brief: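 Antagonism read as drop in aequorin luminescence after histamine challenge at a predetermined EC80, following 15 min compound pretreatment at room temperature. Cells: CHO-K1 carrying human H1, or H4 with Gα16; signal as AUC or amplitude, normalised to 10 μM diphenhydramine (H1) or JNJ7777120 (H4).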

Where a name gives a salt, the structure may show the parent alone.

T1 sequence (Q9H3N8 whole entry): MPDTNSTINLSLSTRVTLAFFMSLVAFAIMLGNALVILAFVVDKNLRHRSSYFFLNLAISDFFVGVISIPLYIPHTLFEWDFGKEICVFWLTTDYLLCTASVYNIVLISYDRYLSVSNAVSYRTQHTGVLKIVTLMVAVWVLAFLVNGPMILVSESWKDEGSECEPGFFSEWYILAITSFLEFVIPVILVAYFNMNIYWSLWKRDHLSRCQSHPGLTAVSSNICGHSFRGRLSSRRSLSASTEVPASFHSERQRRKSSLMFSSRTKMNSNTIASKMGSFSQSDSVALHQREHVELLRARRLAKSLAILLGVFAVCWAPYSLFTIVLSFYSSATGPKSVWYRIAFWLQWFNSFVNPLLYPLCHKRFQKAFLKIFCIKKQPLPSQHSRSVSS

In the case of `Cc1nc2c3cc(Cl)c(Cl)cc3nc(N3CCNCC3)n2n1` [Example 94, 8,9-Dichloro-2-methyl-5-(piperazin-1-yl)-[1,2,4]triazolo[1,5-c]quinazoline], the EC50 was below 10 µM on human H4 and above 10 µM at human H1.

With `Cc1nc2c3cc(Cl)c(F)cc3nc(N3CCNCC3)n2n1` [Example 96, 9-Chloro-8-fluoro-2-methyl-5-(piperazin-1-yl)-[1,2,4]triazolo[1,5-c]quinazoline], the concentration for a half-maximal effect (EC50) on human H4 is below 10 µM; on human H1, above 10 µM.

In the case of `Cc1nc2c3cc(F)c(F)cc3nc(N3CCN(C)CC3)n2n1` [Example 97, 8,9-Difluoro-2-methyl-5-(4-methylpiperazin-1-yl)-[1,2,4]triazolo[1,5-c]quinazoline], the EC50 at human H4 was below 10 µM; on human H1 it was above 10 µM.

Consider `Cc1nc2c3cc(F)c(F)cc3nc(N3CCNCC3)n2n1` [Example 98, 8,9-Difluoro-2-methyl-5-(piperazin-1-yl)-[1,2,4]triazolo[1,5-c]quinazoline], for which the EC50 was below 10 µM at human H4 and above 10 µM at human H1.

For the compound `Cc1ccc2nc(N3CCNCC3)n3nc(C)nc3c2c1` [Example 100, 2,9-Dimethyl-5-(piperazin-1-yl)-[1,2,4]triazolo[1,5-c]quinazoline], the EC50 at human H4 and on human H1 was above 10 µM in each case.

As to `COc1ccc2nc(N3CCN(C)CC3)n3nc(C)nc3c2c1` [Example 101, 9-Methoxy-2-methyl-5-(4-methylpiperazin-1-yl)-[1,2,4]triazolo[1,5-c]quinazoline], the EC50 at human H4 was below 10 µM; at human H1, above 10 µM.

As to `COc1ccc2nc(N3CCNCC3)n3nc(C)nc3c2c1` [Example 102, 9-Methoxy-2-methyl-5-(piperazin-1-yl)-[1,2,4]triazolo[1,5-c]quinazoline], the EC50 at human H4 and at human H1 was above 10 µM throughout.

Consider `Cc1nc2c3ccc(Cl)cc3nc(N3CCN(C)CC3)n2n1` [Example 105, 8-Chloro-2-methyl-5-(4-methylpiperazin-1-yl)-[1,2,4]triazolo[1,5-c]quinazoline], for which the results for the EC50 on human H4 and at human H1 were below 10 µM and above 10 µM, respectively.

Turning to `Cc1nc2c3ccc(Cl)cc3nc(N3CCNCC3)n2n1` [Example 106, 8-Chloro-2-methyl-5-(piperazin-1-yl)-[1,2,4]triazolo[1,5-c]quinazoline], the EC50 at human H4 is below 10 µM; at human H1, above 10 µM.

As for `Cc1nc2c3ccc(F)cc3nc(N3CCN(C)CC3)n2n1` [Example 107, 8-Fluoro-2-methyl-5-(4-methylpiperazin-1-yl)-[1,2,4]triazolo[1,5-c]quinazoline], the EC50 is below 10 µM on human H4 and above 10 µM on human H1.

For `Cc1nc2c3ccc(F)cc3nc(N3CCNCC3)n2n1` [Example 108, 8-Fluoro-2-methyl-5-(piperazin-1-yl)-[1,2,4]triazolo[1,5-c]quinazoline], the EC50 on human H4 and on human H1 was above 10 µM in each case.

Take `Cc1nc2c3ccc(C(F)(F)F)cc3nc(N3CCNCC3)n2n1` [Example 110, 2-Methyl-5-(piperazin-1-yl)-8-(trifluoromethyl)-[1,2,4]triazolo[1,5-c]quinazoline]: the figures for the EC50 on human H4 and on human H1 were below 10 µM and above 10 µM, respectively.

Consider `CN1CCN(c2nc3ccc(Cl)cc3c3ncnn23)CC1` [Example 111, 9-chloro-5-(4-methylpiperazin-1-yl)-[1,2,4]triazolo[1,5-c]quinazoline], for which the EC50 was below 10 µM on human H4 and above 10 µM at human H1.

Take `CCc1nc2c3cc(Cl)ccc3nc(N3CCN(C)CC3)n2n1` [Example 114, 9-Chloro-2-ethyl-5-(4-methylpiperazin-1-yl)-[1,2,4]triazolo[1,5-c]quinazoline]: the EC50 at human H4 was below 10 µM; at human H1, above 10 µM.

On to `CCc1nc2c3cc(Cl)ccc3nc(N3CCNCC3)n2n1` [Example 115, 9-Chloro-2-ethyl-5-(piperazin-1-yl)-[1,2,4]triazolo[1,5-c]quinazoline], for which the EC50 at human H4 was below 10 µM; at human H1 it was above 10 µM.

In the case of `CC(C)c1nc2c3cc(Cl)ccc3nc(N3CCN(C)CC3)n2n1` [Example 116, 9-Chloro-2-isopropyl-5-(4-methylpiperazin-1-yl)-[1,2,4]triazolo[1,5-c]quinazoline], the EC50 on human H4 and on human H1 was above 10 µM throughout.

For the compound `CC(C)c1nc2c3cc(Cl)ccc3nc(N3CCNCC3)n2n1` [Example 117, 9-Chloro-2-isopropyl-5-(piperazin-1-yl)-[1,2,4]triazolo[1,5-c]quinazoline], the EC50 on human H4 and at human H1 was above 10 µM each time.

For the compound `CN1CCN(c2nc3ccc(Cl)cc3c3nc(Cc4ccccc4)nn23)CC1` [Example 118, 2-Benzyl-9-chloro-5-(4-methylpiperazin-1-yl)-[1,2,4]triazolo[1,5-c]quinazoline], the EC50 on human H4 and on human H1 was above 10 µM throughout.

For the compound `Clc1ccc2nc(N3CCNCC3)n3nc(Cc4ccccc4)nc3c2c1` [Example 119, 2-Benzyl-9-chloro-5-(piperazin-1-yl)-[1,2,4]triazolo[1,5-c]quinazoline], the concentration giving a half-maximal response (EC50) on human H4 and at human H1 was above 10 µM throughout.

With `CN1CCN(c2nc3ccc(C(F)(F)F)cc3c3nc(C(F)(F)F)nn23)CC1` [Example 120, 5-(4-methylpiperazin-1-yl)-2,9-bis(trifluoromethyl)-[1,2,4]triazolo[1,5-c]quinazoline], the EC50 on human H4 was below 10 µM; on human H1 it was above 10 µM.

With `FC(F)(F)c1ccc2nc(N3CCNCC3)n3nc(C(F)(F)F)nc3c2c1` [Example 121, 5-(piperazin-1-yl)-2,9-bis(trifluoromethyl)-[1,2,4]triazolo[1,5-c]quinazoline], the EC50 on human H4 and on human H1 was above 10 µM in each case.

Take `Cc1nc2c3cc(C(F)(F)F)c(Cl)cc3nc(N3CCN(C)CC3)n2n1` [Example 122, 8-chloro-2-methyl-5-(4-methylpiperazin-1-yl)-9-(trifluoromethyl)-[1,2,4]triazolo[1,5-c]quinazoline]: the EC50 is below 10 µM at human H4 and above 10 µM on human H1.

Consider `Cc1nc2c3cc(C(F)(F)F)c(Cl)cc3nc(N3CCNCC3)n2n1` [Example 123, 8-chloro-2-methyl-5-(piperazin-1-yl)-9-(trifluoromethyl)-[1,2,4]triazolo[1,5-c]quinazoline], for which the EC50 on human H4 is below 10 µM; at human H1 it was above 10 µM.

Take `Cc1nc2c3cc(C(F)(F)F)cc(F)c3nc(N3CCNCC3)n2n1` [Example 128, 7-fluoro-2-methyl-5-(piperazin-1-yl)-9-(trifluoromethyl)-[1,2,4]triazolo[1,5-c]quinazoline hydrochloride]: the values for the EC50 at human H4 and at human H1 were below 10 µM and above 10 µM, respectively.

Regarding `Cc1nc2c3cc(F)c(C(F)(F)F)cc3nc(N3CCNCC3)n2n1` [Example 130, 9-fluoro-2-methyl-5-(piperazin-1-yl)-8-(trifluoromethyl)-[1,2,4]triazolo[1,5-c]quinazoline hydrochloride], the EC50 at human H4 was below 10 µM; at human H1 it was above 10 µM.

For `Cc1nc2c3cc(Cl)c(C(F)(F)F)cc3nc(N3CCN(C)CC3)n2n1` [Example 131, 9-chloro-2-methyl-5-(4-methylpiperazin-1-yl)-8-(trifluoromethyl)-[1,2,4]triazolo[1,5-c]quinazoline hydrochloride], the EC50 on human H4 is below 10 µM; on human H1, above 10 µM.

`Cc1nc2c3cc(Cl)c(C(F)(F)F)cc3nc(N3CCNCC3)n2n1` [Example 132, 9-chloro-2-methyl-5-(piperazin-1-yl)-8-(trifluoromethyl)-[1,2,4]triazolo[1,5-c]quinazoline hydrochloride]: the EC50 on human H4 is below 10 µM; on human H1, above 10 µM.

`Cc1nc2c3cc(OC(F)(F)F)ccc3nc(N3CCNCC3)n2n1` [Example 134, 2-methyl-5-(piperazin-1-yl)-9-(trifluoromethoxy)-[1,2,4]triazolo[1,5-c]quinazoline hydrochloride]: the results for the EC50 on human H4 and at human H1 were below 10 µM and above 10 µM, respectively.

With `Cc1nc2c3cc(Br)ccc3nc(N3CCN(C)CC3)n2n1` [Example 135, 9-bromo-2-methyl-5-(4-methylpiperazin-1-yl)-[1,2,4]triazolo[1,5-c]quinazoline], the EC50 on human H4 and on human H1 was below 10 µM throughout.

For the compound `C=Cc1ccc2nc(N3CCN(C)CC3)n3nc(C)nc3c2c1` [Example 137, 2-methyl-5-(4-methylpiperazin-1-yl)-9-vinyl-[1,2,4]triazolo[1,5-c]quinazoline], the figures for the EC50 at human H4 and on human H1 were below 10 µM and above 10 µM, respectively.

`C=Cc1ccc2nc(N3CCNCC3)n3nc(C)nc3c2c1` [Example 138, 2-methyl-5-(piperazin-1-yl)-9-vinyl-[1,2,4]triazolo[1,5-c]quinazoline]: the EC50 at human H4 was below 10 µM; on human H1, above 10 µM.

For `CCc1ccc2nc(N3CCN(C)CC3)n3nc(C)nc3c2c1` [Example 139, 9-ethyl-2-methyl-5-(4-methylpiperazin-1-yl)-[1,2,4]triazolo[1,5-c]quinazoline], the EC50 was below 10 µM on human H4 and above 10 µM on human H1.

Take `CCc1ccc2nc(N3CCNCC3)n3nc(C)nc3c2c1` [Example 140, 9-ethyl-2-methyl-5-(piperazin-1-yl)-[1,2,4]triazolo[1,5-c]quinazoline]: the concentration giving a half-maximal response (EC50) was below 10 µM at human H4 and above 10 µM on human H1.

Regarding `CN1CCN(c2nc3ccc(Cl)cc3c3ocnc23)CC1` [Example 141, 8-chloro-4-(4-methylpiperazin-1-yl)oxazolo[4,5-c]quinoline], the EC50 on human H4 and on human H1 was below 10 µM throughout.

In the case of `Clc1ccc2nc(N3CCNCC3)c3ncoc3c2c1` [Example 142, 8-Chloro-4-piperazinyl-1,3-oxazolo[4,5-c]quinoline], the values for the EC50 on human H4 and on human H1 were below 10 µM and above 10 µM, respectively.
